According to patent publication US10750743B2, “Pyridazinone herbicides” (E.I. DU PONT DE NEMOURS AND COMPANY, priority 2015, dated 2020):

Columns and labels:
Format in all cases: in vivo
[1] = tested on: barnyardgrass (Echinochloa crus-galli); assay: Test A preemergence, directed soil spray, visual injury rating; conditions: 0 is no effect, 100 is complete control
Method in brief: (§1)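 Injury ratings, 0 (no effect) to 100 (complete control), were scored visually versus untreated plants roughly 10 d after treatment under greenhouse conditions. Treatments used surfactant-containing solvent formulations, sprayed onto soil preemergence or onto one- to two-leaf seedlings (2-10 cm) postemergence, grown in a loam-sand mix.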

[2] = tested on: foxtail, giant (giant foxtail, Setaria faberii); assay: as above; conditions: 0 is no effect, 100 is complete control
Method in brief: as §1

kochia (Kochia scoparia) [3] = assay: as above; conditions: 0 is no effect, 100 is complete control
Method in brief: as §1

[4] = tested on: pigweed (Amaranthus retroflexus); assay: as above; conditions: 0 is no effect, 100 is complete control
Method in brief: as §1

[5] = tested on: ragweed (common ragweed, Ambrosia elatior); assay: as above; conditions: 0 is no effect, 100 is complete control
Method in brief: as §1

[6] = tested on: ryegrass, It. (Italian ryegrass, Lolium multiflorum); assay: as above; conditions: 0 is no effect, 100 is complete control
Method in brief: as §1

[7] = tested on: barnyardgrass (Echinochloa crus-galli); assay: Test B flooded paddy test, visual rating; conditions: Flood, 250 g ai/ha, applied to paddy water, rated after 13 to 15 d
Method in brief: (§2)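 Ratings use a 0-100 visual scale, where 100 is complete control, and compare treated plants with controls after 13 to 15 d of greenhouse growth. Compound went straight into paddy water kept 3 cm over the soil surface, applied to seedlings at the 2-leaf stage.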

[8] = tested on: ducksalad (Heteranthera limosa); assay: Test B flooded paddy test, visual rating; conditions: Flood, 250 g ai/ha, applied to paddy water, rated after 13 to 15 d
Method in brief: as §2

rice (Oryza sativa) = assay: Test B flooded paddy test, visual rating; conditions: Flood, 250 g ai/ha, applied to paddy water, rated after 13 to 15 d
Method in brief: as §2

[9] = tested on: sedge, umbrella (small-flower umbrella sedge, Cyperus difformis); assay: Test B flooded paddy test, visual rating; conditions: Flood, 250 g ai/ha, applied to paddy water, rated after 13 to 15 d
Method in brief: as §2

[10] = tested on: barnyardgrass (Echinochloa crus-galli); assay: Test A postemergence application, visual injury rating; conditions: 0 to 100 scale, 0 no effect, 100 complete control
Method in brief: as §1

[11] = tested on: blackgrass (Alopecurus myosuroides); assay: as above; conditions: 0 to 100 scale, 0 no effect, 100 complete control
Method in brief: as §1

corn (Zea mays) = assay: as above; conditions: 0 to 100 scale, 0 no effect, 100 complete control
Method in brief: as §1

[12] = tested on: foxtail, giant (giant foxtail, Setaria faberii); assay: as above; conditions: 0 to 100 scale, 0 no effect, 100 complete control
Method in brief: as §1

[13] = tested on: galium (catchweed bedstraw, Galium aparine); assay: as above; conditions: 0 to 100 scale, 0 no effect, 100 complete control
Method in brief: as §1

kochia (Kochia scoparia) [14] = assay: as above; conditions: 0 to 100 scale, 0 no effect, 100 complete control
Method in brief: as §1

[15] = tested on: pigweed (Amaranthus retroflexus); assay: as above; conditions: 0 to 100 scale, 0 no effect, 100 complete control
Method in brief: as §1

[16] = tested on: ragweed (common ragweed, Ambrosia elatior); assay: as above; conditions: 0 to 100 scale, 0 no effect, 100 complete control
Method in brief: as §1

[17] = tested on: ryegrass, It. (Italian ryegrass, Lolium multiflorum); assay: as above; conditions: 0 to 100 scale, 0 no effect, 100 complete control
Method in brief: as §1

[18] = tested on: wheat (Triticum aestivum); assay: as above; conditions: 0 to 100 scale, 0 no effect, 100 complete control
Method in brief: as §1

| Structure (SMILES) | Plant response rating (0 to 100 scale), Barnyardgrass ([1]; 125 g ai/ha) | Plant response rating (0 to 100 scale), Foxtail, Giant ([2]; 125 g ai/ha) | Plant response rating (0 to 100 scale), Kochia (kochia (Kochia scoparia) [3]; 125 g ai/ha) | Plant response rating (0 to 100 scale), Pigweed ([4]; 125 g ai/ha) | Plant response rating (0 to 100 scale), Ragweed ([5]; 125 g ai/ha) | Plant response rating (0 to 100 scale), Ryegrass, It. ([6]; 125 g ai/ha) | Barnyardgrass plant response rating (0 to 100 scale, 0 is no effect, 100 is complete control) [7] | Ducksalad plant response rating (0 to 100 scale, 0 is no effect, 100 is complete control) [8] | Rice plant response rating (0 to 100 scale, 0 is no effect, 100 is complete control) (rice (Oryza sativa)) | Sedge, Umbrella plant response rating (0 to 100 scale, 0 is no effect, 100 is complete control) [9] | Barnyardgrass plant response rating ([10]; 125 g ai/ha) | Blackgrass plant response rating ([11]; 125 g ai/ha) | Corn plant response rating (corn (Zea mays); 125 g ai/ha) | Foxtail, Giant plant response rating ([12]; 125 g ai/ha) | Galium plant response rating ([13]; 125 g ai/ha) | Kochia plant response rating (kochia (Kochia scoparia) [14]; 125 g ai/ha) | Pigweed plant response rating ([15]; 125 g ai/ha) | Ragweed plant response rating ([16]; 125 g ai/ha) | Ryegrass, It. plant response rating ([17]; 125 g ai/ha) | Wheat plant response rating ([18]; 125 g ai/ha) | further results |
| --- | --- | --- | --- | --- | --- | --- | --- | --- | --- | --- | --- | --- | --- | --- | --- | --- | --- | --- | --- | --- | --- |
| Cc1cc2c(-c3c(O)c(C)nn(C)c3=O)ccc(Cl)c2o1 [Compound 45] | 0 | 0 | 0 | 50 | 10 | 30 | 0 | 30 | 0 | 50 | 0 | 0 | 0 | 0 | 70 | 0 | 10 | 0 | 60 | 0 | Plant response rating (0 to 100 scale), Barnyardgrass ([1]; 31 g ai/ha): 0; Plant response rating (0 to 100 scale), Foxtail, Giant ([2]; 31 g ai/ha): 0; Plant response rating (0 to 100 scale), Kochia (kochia (Kochia scoparia) [3]; 31 g ai/ha): 0; Plant response rating (0 to 100 scale), Pigweed ([4]; 31 g ai/ha): 0; Plant response rating (0 to 100 scale), Ragweed ([5]; 31 g ai/ha): 0; Plant response rating (0 to 100 scale), Ryegrass, It. ([6]; 31 g ai/ha): 0; Barnyardgrass plant response rating ([10]; 31 g ai/ha): 0; Blackgrass plant response rating ([11]; 31 g ai/ha): 0; Corn plant response rating (corn (Zea mays); 31 g ai/ha): 0; Foxtail, Giant plant response rating ([12]; 31 g ai/ha): 0; Galium plant response rating ([13]; 31 g ai/ha): 20; Kochia plant response rating (kochia (Kochia scoparia) [14]; 31 g ai/ha): 0; Pigweed plant response rating ([15]; 31 g ai/ha): 0; Ragweed plant response rating ([16]; 31 g ai/ha): 0; Ryegrass, It. plant response rating ([17]; 31 g ai/ha): 20; Wheat plant response rating ([18]; 31 g ai/ha): 0 |
| Cc1ccc2sc(Cl)cc2c1-c1c(O)c(C)nn(C)c1=O [Compound 46] | 50 | 80 | 80 | 100 | 80 | 100 | 0 | 0 | 0 | 70 | 30 | 70 | 20 | 90 | 90 | 90 | 90 | 100 | 100 | 20 | Plant response rating (0 to 100 scale), Barnyardgrass ([1]; 31 g ai/ha): 0; Plant response rating (0 to 100 scale), Foxtail, Giant ([2]; 31 g ai/ha): 30; Plant response rating (0 to 100 scale), Kochia (kochia (Kochia scoparia) [3]; 31 g ai/ha): 50; Plant response rating (0 to 100 scale), Pigweed ([4]; 31 g ai/ha): 100; Plant response rating (0 to 100 scale), Ragweed ([5]; 31 g ai/ha): 80; Plant response rating (0 to 100 scale), Ryegrass, It. ([6]; 31 g ai/ha): 90; Barnyardgrass plant response rating ([10]; 31 g ai/ha): 10; Blackgrass plant response rating ([11]; 31 g ai/ha): 40; Corn plant response rating (corn (Zea mays); 31 g ai/ha): 0; Foxtail, Giant plant response rating ([12]; 31 g ai/ha): 50; Galium plant response rating ([13]; 31 g ai/ha): 90; Kochia plant response rating (kochia (Kochia scoparia) [14]; 31 g ai/ha): 60; Pigweed plant response rating ([15]; 31 g ai/ha): 90; Ragweed plant response rating ([16]; 31 g ai/ha): 90; Ryegrass, It. plant response rating ([17]; 31 g ai/ha): 90; Wheat plant response rating ([18]; 31 g ai/ha): 0 |
| COC(=O)Oc1c(C)nn(C)c(=O)c1-c1ccc(Cl)c2ccsc12 [Compound 50] | 10 | 10 | 20 | 100 | 20 | 80 | 0 | 0 | 0 | 0 | 10 | 10 | 0 | 0 | 100 | 90 | 70 | 70 | 90 | 0 | Plant response rating (0 to 100 scale), Barnyardgrass ([1]; 31 g ai/ha): 0; Plant response rating (0 to 100 scale), Foxtail, Giant ([2]; 31 g ai/ha): 0; Plant response rating (0 to 100 scale), Kochia (kochia (Kochia scoparia) [3]; 31 g ai/ha): 0; Plant response rating (0 to 100 scale), Pigweed ([4]; 31 g ai/ha): 0; Plant response rating (0 to 100 scale), Ragweed ([5]; 31 g ai/ha): 0; Plant response rating (0 to 100 scale), Ryegrass, It. ([6]; 31 g ai/ha): 60; Barnyardgrass plant response rating ([10]; 31 g ai/ha): 0; Blackgrass plant response rating ([11]; 31 g ai/ha): 0; Corn plant response rating (corn (Zea mays); 31 g ai/ha): 0; Foxtail, Giant plant response rating ([12]; 31 g ai/ha): 0; Galium plant response rating ([13]; 31 g ai/ha): 100; Kochia plant response rating (kochia (Kochia scoparia) [14]; 31 g ai/ha): 40; Pigweed plant response rating ([15]; 31 g ai/ha): 60; Ragweed plant response rating ([16]; 31 g ai/ha): 10; Ryegrass, It. plant response rating ([17]; 31 g ai/ha): 60; Wheat plant response rating ([18]; 31 g ai/ha): 0 |
| CC(=O)Oc1c(C)nn(C)c(=O)c1-c1ccc(Cl)c2ccsc12 [Compound 51] | 20 | 0 | 20 | 60 | 0 | 100 | 0 | 0 | 0 | 0 | 10 | 10 | 0 | 0 | 100 | 90 | 60 | 50 | 100 | 0 | Plant response rating (0 to 100 scale), Barnyardgrass ([1]; 31 g ai/ha): 0; Plant response rating (0 to 100 scale), Foxtail, Giant ([2]; 31 g ai/ha): 0; Plant response rating (0 to 100 scale), Kochia (kochia (Kochia scoparia) [3]; 31 g ai/ha): 0; Plant response rating (0 to 100 scale), Pigweed ([4]; 31 g ai/ha): 0; Plant response rating (0 to 100 scale), Ragweed ([5]; 31 g ai/ha): 0; Plant response rating (0 to 100 scale), Ryegrass, It. ([6]; 31 g ai/ha): 60; Barnyardgrass plant response rating ([10]; 31 g ai/ha): 0; Blackgrass plant response rating ([11]; 31 g ai/ha): 0; Corn plant response rating (corn (Zea mays); 31 g ai/ha): 0; Foxtail, Giant plant response rating ([12]; 31 g ai/ha): 0; Galium plant response rating ([13]; 31 g ai/ha): 100; Kochia plant response rating (kochia (Kochia scoparia) [14]; 31 g ai/ha): 70; Pigweed plant response rating ([15]; 31 g ai/ha): 50; Ragweed plant response rating ([16]; 31 g ai/ha): 0; Ryegrass, It. plant response rating ([17]; 31 g ai/ha): 70; Wheat plant response rating ([18]; 31 g ai/ha): 0 |
| CCC(=O)Oc1c(C)nn(C)c(=O)c1-c1ccc(Cl)c2oc(C)cc12 [Compound 52] | 0 | 0 | 0 | 70 | 0 | 50 | 0 | 0 | 0 | 0 | 0 | 0 | 0 | 0 | 90 | 0 | 60 | 20 | 40 | 0 | Plant response rating (0 to 100 scale), Barnyardgrass ([1]; 500 g ai/ha): 0; Plant response rating (0 to 100 scale), Foxtail, Giant ([2]; 500 g ai/ha): 0; Plant response rating (0 to 100 scale), Kochia (kochia (Kochia scoparia) [3]; 500 g ai/ha): 0; Plant response rating (0 to 100 scale), Pigweed ([4]; 500 g ai/ha): 100; Plant response rating (0 to 100 scale), Ragweed ([5]; 500 g ai/ha): 0; Plant response rating (0 to 100 scale), Ryegrass, It. ([6]; 500 g ai/ha): 70; Barnyardgrass plant response rating ([10]; 500 g ai/ha): 10; Blackgrass plant response rating ([11]; 500 g ai/ha): 10; Corn plant response rating (corn (Zea mays); 500 g ai/ha): 0; Foxtail, Giant plant response rating ([12]; 500 g ai/ha): 0; Galium plant response rating ([13]; 500 g ai/ha): 90; Kochia plant response rating (kochia (Kochia scoparia) [14]; 500 g ai/ha): 20; Pigweed plant response rating ([15]; 500 g ai/ha): 60; Ragweed plant response rating ([16]; 500 g ai/ha): 60; Ryegrass, It. plant response rating ([17]; 500 g ai/ha): 60; Wheat plant response rating ([18]; 500 g ai/ha): 0 |
